Measured values published in ChEMBL document CHEMBL5137080, “Discovery of Novel 7-Hydroxy-5-oxo-4,5-dihydrothieno[3,2-b]pyridine-6-carboxamide Derivatives with Potent and Selective Antifungal Activity against Cryptococcus Species” (J Med Chem, 2022).
Activity calls are given as the source filed them. The calls are words filed in the database; no cut-off is given here.

Tests used:
[1] = test system: Cryptococcus gattii species complex; experiment: Synergistic antifungal activity against Cryptococcus gattii E566 assessed as fractional inhibitory concentration index incubated for 72 hrs in presence of Fluconazole by broth microdilution method; type: functional
Cryptococcus neoformans [2] = experiment: Antifungal activity against Cryptococcus neoformans H99 assessed as fungal growth inhibition incubated for 72 hrs in presence of Fluconazole by broth microdilution method; type: functional
Cryptococcus neoformans [3] = experiment: Antifungal activity against Cryptococcus neoformans clinical isolate HN17 assessed as fungal growth inhibition incubated for 72 hrs in presence of Fluconazole by broth microdilution method; type: functional
[4] = Cytotoxicity against rabbit RBC assessed as cell growth inhibition incubated for 24 hrs by CCK-8 assay; type: toxicity, cell-based, Oryctolagus cuniculus, Erythrocyte; conditions: red blood cells
[5] = Selectivity index, ratio of IC50 for human HUVEC to MIC for antifungal activity against Cryptococcus neoformans; type: toxicity; conditions: HUVEC cells, read-out: Selectivity Index
[6] = test system: Cryptococcus deuterogattii; experiment: Antifungal activity against Cryptococcus gattii WM178 assessed as reduction on fungal growth at 8 ug/ml incubated for 48 hrs by plate reader assay; type: functional, organism-based; conditions: Cryptococcus gattii species complex, dose 8.0 µg/ml
[7] = test system: Cryptococcus deuterogattii; experiment: Synergistic antifungal activity against Cryptococcus gattii WM178 assessed as fractional inhibitory concentration index incubated for 72 hrs in presence of Fluconazole by broth microdilution method; type: functional, Cryptococcus gattii species complex
[8] = test system: Cryptococcus deuterogattii; experiment: Antifungal activity against Cryptococcus gattii WM178 assessed as fungal growth inhibition incubated for 72 hrs in presence of Fluconazole by broth microdilution method; type: functional, Cryptococcus gattii species complex
[9] = test system: Cryptococcus gattii species complex; experiment: Antifungal activity against Cryptococcus gattii E566 assessed as fungal growth inhibition incubated for 72 hrs in presence of Fluconazole by broth microdilution method; type: functional
Cryptococcus neoformans [10] = experiment: Antifungal activity against Cryptococcus neoformans clinical isolate 444 assessed as fungal growth inhibition incubated for 72 hrs in presence of Fluconazole by broth microdilution method; type: functional
Cryptococcus neoformans [11] = experiment: Antifungal activity against Cryptococcus neoformans clinical isolate 56992 assessed as fungal growth inhibition incubated for 72 hrs in presence of Fluconazole by broth microdilution method; type: functional
Cryptococcus neoformans [12] = experiment: Antifungal activity against Cryptococcus neoformans clinical isolate HN19 assessed as fungal growth inhibition incubated for 72 hrs in presence of Fluconazole by broth microdilution method; type: functional
Cryptococcus neoformans [13] = experiment: Synergistic antifungal activity against Cryptococcus neoformans clinical isolate 56992 assessed as fractional inhibitory concentration index incubated for 72 hrs in presence of Fluconazole by broth microdilution method; type: functional
Pichia kudriavzevii [14] = experiment: Antifungal activity against Candida krusei ATCC2340 assessed as fungal growth inhibition incubated for 48 hrs in presence of Fluconazole by broth microdilution method; type: functional
[15] = test system: Cryptococcus gattii species complex; experiment: Synergistic antifungal activity against Cryptococcus gattii clinical isolate SCZ20024 assessed as fractional inhibitory concentration index incubated for 72 hrs in presence of Fluconazole by broth microdilution method; type: functional
Cryptococcus neoformans [16] = experiment: Antifungal activity against Cryptococcus neoformans clinical isolate 445 assessed as fungal growth inhibition incubated for 72 hrs in presence of Fluconazole by broth microdilution method; type: functional
[17] = AUC (0 to infinitive) in Sprague-Dawley rat at 2 mg/kg,iv by LC-MS/MS analysis; type: ADME, organism-based; set-up: time infinity, dose 2 mg/kg, route iv; conditions: in vivo
[18] = MRT (0 to t) in Sprague-Dawley rat at 2 mg/kg,iv by LC-MS/MS analysis; type: ADME, organism-based; conditions: in vivo
[19] = test system: Cryptococcus deuterogattii; experiment: Antifungal activity against Cryptococcus gattii WM178 infected in Wax moth larvae assessed as survival rate at 10 mg/kg measured after 9 days in presence of Fluconazole by Kaplan-Meier method; type: functional, Cryptococcus gattii species complex; conditions: WM178, 216 h, time 9 day
[20] = Half life in Sprague-Dawley rat at 5 mg/kg,po by LC-MS/MS analysis; type: ADME, organism-based; conditions: in vivo
Cryptococcus neoformans [21] = experiment: Synergistic antifungal activity against Cryptococcus neoformans clinical isolate HN19 assessed as fractional inhibitory concentration index incubated for 72 hrs in presence of P163-0892 by broth microdilution method; type: functional
Pichia kudriavzevii [22] = experiment: Synergistic antifungal activity against Candida krusei ATCC2340 assessed as fractional inhibitory concentration index incubated for 48 hrs in presence of P163-0892 by broth microdilution method; type: functional
Cryptococcus neoformans [23] = experiment: Antifungal activity against Cryptococcus neoformans H99 infected in Wax moth larvae assessed as survival rate at 10 mg/kg measured after 9 days in presence of P163-0892 by Kaplan-Meier method; type: functional; conditions: H99, 216 h, time 9 day
Cryptococcus neoformans [24] = experiment: Antifungal activity against Cryptococcus neoformans clinical isolate HN15 assessed as fungal growth inhibition incubated for 72 hrs in presence of P163-0892 by broth microdilution method; type: functional
Cryptococcus neoformans [25] = experiment: Synergistic antifungal activity against Cryptococcus neoformans clinical isolate BJ3 assessed as fractional inhibitory concentration index incubated for 72 hrs in presence of P163-0892 by broth microdilution method; type: functional
[26] = test system: Cryptococcus gattii species complex; experiment: Synergistic antifungal activity against Cryptococcus gattii clinical isolate SCZ20031 assessed as fractional inhibitory concentration index incubated for 72 hrs in presence of P163-0892 by broth microdilution method; type: functional
[27] = test system: Cryptococcus gattii species complex; experiment: Synergistic antifungal activity against Cryptococcus gattii clinical isolate SCZ20024 assessed as fractional inhibitory concentration index incubated for 72 hrs in presence of P163-0892 by broth microdilution method; type: functional
Cryptococcus neoformans [28] = experiment: Synergistic antifungal activity against Cryptococcus neoformans H99 assessed as fractional inhibitory concentration index incubated for 72 hrs in presence of P163-0892 by broth microdilution method; type: functional
Cryptococcus neoformans [29] = experiment: Antifungal activity against Cryptococcus neoformans clinical isolate BJ3 assessed as fungal growth inhibition incubated for 72 hrs in presence of P163-0892 by broth microdilution method; type: functional
Cryptococcus neoformans [30] = experiment: Antifungal activity against Cryptococcus neoformans clinical isolate HN2-40 assessed as fungal growth inhibition incubated for 72 hrs in presence of P163-0892 by broth microdilution method; type: functional
Cryptococcus neoformans [31] = experiment: Synergistic antifungal activity against Cryptococcus neoformans clinical isolate 443 assessed as fractional inhibitory concentration index incubated for 72 hrs in presence of P163-0892 by broth microdilution method; type: functional
Cryptococcus neoformans [32] = experiment: Antifungal activity against Cryptococcus neoformans clinical isolate 443 assessed as fungal growth inhibition incubated for 72 hrs in presence of P163-0892 by broth microdilution method; type: functional
[33] = test system: Cryptococcus deuterogattii; experiment: Antifungal activity against Cryptococcus gattii WM178 assessed as fungal growth inhibition incubated for 72 hrs in presence of P163-0892 by broth microdilution method; type: functional, Cryptococcus gattii species complex
[Candida] auris = Synergistic antifungal activity against Candida auris CBS 12372 assessed as fractional inhibitory concentration index incubated for 48 hrs in presence of P163-0892 by broth microdilution method; type: functional, Candidozyma auris
Cryptococcus neoformans [34] = experiment: Antifungal activity against Cryptococcus neoformans clinical isolate 445 assessed as fungal growth inhibition incubated for 72 hrs in presence of P163-0892 by broth microdilution method; type: functional
Candida tropicalis = experiment: Synergistic antifungal activity against Candida tropicalis ATCC20026 assessed as fractional inhibitory concentration index incubated for 48 hrs in presence of P163-0892 by broth microdilution method; type: functional
[35] = test system: Cryptococcus gattii species complex; experiment: Synergistic antifungal activity against Cryptococcus gattii E566 assessed as fractional inhibitory concentration index incubated for 72 hrs in presence of P163-0892 by broth microdilution method; type: functional

Question: Which “fractional inhibitory concentration index (FICI)” value [1] does the source give for `CCCCNC(=O)c1c(O)c2sccc2n(Cc2ccccc2)c1=O` here?
Answer: The value was 0.188.

Question: What about the MIC (Cryptococcus neoformans [2]) of the same compound?
Answer: Its MIC is 0.0625 µg/mL.

Question: And the MIC (Cryptococcus neoformans [3])?
Answer: Its MIC is 0.0313 µg/mL.

Question: What about the IC50 at 24 h [4] of the same compound?
Answer: The IC50 at 24 h was > 256 µg/mL.

Question: And the selectivity ratio [5]?
Answer: The selectivity ratio was > 256.

Question: What about the Activity [6] of the same compound?
Answer: Its Activity is “Active”.

Question: And the “fractional inhibitory concentration index (FICI)” value [7]?
Answer: The value was 0.25.

Question: And the MIC [8]?
Answer: The MIC was 0.0625 µg/mL.

Question: And the MIC [9]?
Answer: Its MIC is 0.0313 µg/mL.

Question: And the MIC (Cryptococcus neoformans [10])?
Answer: The MIC was 0.0156 µg/mL.

Question: What about the MIC (Cryptococcus neoformans [11]) of the same compound?
Answer: Its MIC is 0.125 µg/mL.

Question: What about the MIC (Cryptococcus neoformans [12]) of the same compound?
Answer: Its MIC is 0.0313 µg/mL.

Question: What about the “fractional inhibitory concentration index (FICI)” value (Cryptococcus neoformans [13]) of the same compound?
Answer: The value was 0.25.

Question: And the MIC (Pichia kudriavzevii [14])?
Answer: The MIC was 8 µg/mL.

Question: What about the “fractional inhibitory concentration index (FICI)” value [15] of the same compound?
Answer: The value was 0.313.

Question: What about the MIC (Cryptococcus neoformans [16]) of the same compound?
Answer: The MIC was 0.125 µg/mL.

Question: What about the AUC [17] of the same compound?
Answer: The AUC was 749 ng·h/mL.

Question: And the “MRT(t)” value [18]?
Answer: The value was 2.63 h.

Question: And the survival at 10 mg/kg [19]?
Answer: Its survival at 10 mg/kg is 70%.

Question: What about the half-life [20] of the same compound?
Answer: The half-life was 15.3 h.

Question: What does the source list for `OC(Cn1cncn1)(Cn1cncn1)c1ccc(F)cc1F` [FLUCONAZOLE]?
Answer: fractional inhibitory concentration index (FICI) (Cryptococcus neoformans [21]): 0.281; fractional inhibitory concentration index (FICI) (Pichia kudriavzevii [22]): 0.563; survival at 10 mg/kg (Cryptococcus neoformans [23]): 65%; MIC (Cryptococcus neoformans [24]): 1 µg/mL; fractional inhibitory concentration index (FICI) (Cryptococcus neoformans [25]): 0.188; fractional inhibitory concentration index (FICI) [26]: 0.25; fractional inhibitory concentration index (FICI) [27]: 0.313; fractional inhibitory concentration index (FICI) (Cryptococcus neoformans [28]): 0.375; MIC (Cryptococcus neoformans [29]): 0.25 µg/mL; MIC (Cryptococcus neoformans [30]): 0.125 µg/mL; fractional inhibitory concentration index (FICI) (Cryptococcus neoformans [31]): 0.156; MIC (Cryptococcus neoformans [32]): 1 µg/mL; MIC [33]: 0.5 µg/mL; fractional inhibitory concentration index (FICI) ([Candida] auris): 1.008; MIC (Cryptococcus neoformans [34]): 2 µg/mL; fractional inhibitory concentration index (FICI) (Candida tropicalis): 0.516; fractional inhibitory concentration index (FICI) [35]: 0.188
